The target in this test is T1, human capsaicin receptor (Homo sapiens, UniProt Q8NER1).
T1 construct: expressed in transfected cells; host or cells: HEK293, stably transfected with pBK-CMV construct
The test is described as follows: Calcium mobilization assay, determination of antagonist activity. The test is classed as cell-based. Conditions: capsaicin at EC50; cells expressing human capsaicin receptor; Example 6. In short, it runs like this:
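HEK293 cells stably expressing full-length human TRPV1, loaded with Fluo-3 AM in KRH buffer pH 7.4, preincubated with compound (final 1-5 µM) in the dark at room temperature for 0.5-6 h, then stimulated with capsaicin at its EC50. FLIPR fluorescence gave IC50 as concentration halving the capsaicin response.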
(A change in cytosolic calcium serves as a functional read-out for many receptors and channels.)

pIC50: −log10 of the molar value.

T1 sequence (Q8NER1 whole entry): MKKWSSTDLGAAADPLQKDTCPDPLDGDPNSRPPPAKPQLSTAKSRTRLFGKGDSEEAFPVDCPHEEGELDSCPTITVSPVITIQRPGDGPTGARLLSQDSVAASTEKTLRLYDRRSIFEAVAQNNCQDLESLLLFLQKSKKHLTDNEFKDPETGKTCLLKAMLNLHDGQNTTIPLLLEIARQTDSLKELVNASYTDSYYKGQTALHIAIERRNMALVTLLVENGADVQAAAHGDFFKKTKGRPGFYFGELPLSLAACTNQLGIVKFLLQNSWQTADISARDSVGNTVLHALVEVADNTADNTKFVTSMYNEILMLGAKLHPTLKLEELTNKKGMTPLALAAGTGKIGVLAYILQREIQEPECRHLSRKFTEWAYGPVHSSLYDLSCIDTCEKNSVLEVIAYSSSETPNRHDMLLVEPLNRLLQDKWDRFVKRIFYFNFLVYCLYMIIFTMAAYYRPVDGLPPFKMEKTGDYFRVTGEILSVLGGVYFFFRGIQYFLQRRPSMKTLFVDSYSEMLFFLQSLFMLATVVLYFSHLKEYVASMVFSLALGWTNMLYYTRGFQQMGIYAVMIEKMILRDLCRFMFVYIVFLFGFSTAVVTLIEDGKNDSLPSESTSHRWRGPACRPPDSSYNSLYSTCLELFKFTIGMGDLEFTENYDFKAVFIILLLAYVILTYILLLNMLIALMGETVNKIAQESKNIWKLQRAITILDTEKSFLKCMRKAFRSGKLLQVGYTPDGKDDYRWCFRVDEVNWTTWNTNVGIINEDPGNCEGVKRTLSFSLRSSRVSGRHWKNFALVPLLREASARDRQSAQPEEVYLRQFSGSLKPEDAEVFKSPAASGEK

What is called pIC50 is the negative decadic logarithm of the IC50, by convention in mol/L. Regarding `Cc1cccc(-c2cc(N3CCN(c4ncc(C(=O)O)cc4Cl)C[C@H]3C)nc(N3CCCC3C)n2)c1` (stereo partly drawn) [Example 51, 5-Chloro-6-{3-(R)-methyl-4-[2-(2-methyl-pyrrolidin-1-yl)-6-m-tolyl-pyrimidin-4-yl]-piperazin-1-yl}-nicotinic acid], the pIC50 was at least 6.00.
For `CC1CCCN1c1nc(-c2cncc(Cl)c2)cc(N2CCN(c3ncc(C(=O)O)cc3Cl)C[C@H]2C)n1` (stereo partly drawn) [Example 52, 5-Chloro-6-{4-[6-(5-chloro-pyridin-3-yl)-2-(2-methyl-pyrrolidin-1-yl)-pyrimidin-4-yl]-3-(R)-methyl-piperazin-1-yl}-nicotinic acid] the value was at least 6.00.
In the case of `CC(C)c1cc(-c2cc(N3CCN(c4ncc(C(=O)O)cc4Cl)C[C@H]3C)nc(N3CCCC3C)n2)ccn1` (stereo partly drawn) [Example 53, 5-Chloro-6-{4-[6-(2-isopropyl-pyridin-4-yl)-2-(2-methyl-pyrrolidin-1-yl)-pyrimidin-4-yl]-3-(R)-methyl-piperazin-1-yl}-nicotinic acid], the pIC50 was at least 6.00.
Next, `CCOC(=O)c1cnc(N2CCN(c3cc(-c4ccccc4)nc(N4CCCC4C)n3)CC2)c(C)c1` (centres unmarked) [Example 54, 5-Methyl-6-{4-[2-(2-methyl-pyrrolidin-1-yl)-6-phenyl-pyrimidin-4-yl]-piperazin-1-yl}-nicotinic acid ethyl ester]: at least 6.00; `CCOC(=O)c1cnc(N2CCN(c3cc(-c4cccc(C)c4)nc(N4CCCC4C)n3)CC2)c(C)c1` (centres unmarked) [Example 55, 5-Methyl-6-{4-[2-(2-methyl-pyrrolidin-1-yl)-6-m-tolyl-pyrimidin-4-yl]-piperazin-1-yl}-nicotinic acid ethyl ester]: at least 6.00; `CCOC(=O)c1cnc(N2CCN(c3cc(-c4ccncc4)nc(N4CCCC4C)n3)CC2)c(C)c1` (centres unmarked) [Example 56, 5-Methyl-6-{4-[2-(2-methyl-pyrrolidin-1-yl)-6-pyridin-4-yl-pyrimidin-4-yl]-piperazin-1-yl}-nicotinic acid ethyl ester]: at least 6.00.
On to `CCOC(=O)c1cnc(N2CCN(c3cc(-c4ccnc(C(C)C)c4)nc(N4CCCC4C)n3)CC2)c(C)c1` (centres unmarked) [Example 57, 6-{4-[6-(2-Isopropyl-pyridin-4-yl)-2-(2-methyl-pyrrolidin-1-yl)-pyrimidin-4-yl]-piperazin-1-yl}-5-methyl - nicotinic acid ethyl ester], for which the pIC50 was at least 6.00.
For `CCOC(=O)c1cnc(N2CCN(c3cc(-c4ccccc4)nc(N4CCCC4C)n3)[C@H](C)C2)c(C)c1` (stereo partly drawn) [Example 58, 5-Methyl-6-{3-(R)-methyl-4-[2-(2-methyl-pyrrolidin-1-yl)-6-phenyl-pyrimidin-4-yl]-piperazin-1-yl}-nicotinic acid ethyl ester] the value was at least 6.00; for `CCOC(=O)c1cnc(N2CCN(c3cc(-c4cccc(C)c4)nc(N4CCCC4C)n3)[C@H](C)C2)c(C)c1` (stereo partly drawn) [Example 59, 5-Methyl-6-{3-(R)-methyl-4-[2-(2-methyl-pyrrolidin-1-yl)-6-m-tolyl-pyrimidin-4-yl]-piperazin-1-yl}-nicotinic acid ethyl ester], at least 6.00.
Consider `CCOC(=O)c1cnc(N2CCN(c3cc(-c4ccncc4)nc(N4CCCC4C)n3)[C@H](C)C2)c(C)c1` (stereo partly drawn) [Example 60, 5-Methyl-6-{3-(R)-methyl-4-[2-(2-methyl-pyrrolidin-1-yl)-6-pyridin-4-yl-pyrimidin-4-yl] -piperazin-1-yl}-nicotinic acid ethyl ester], for which the pIC50 is at least 6.00.
Regarding `CCOC(=O)c1cnc(N2CCN(c3cc(-c4ccnc(C(C)C)c4)nc(N4CCCC4C)n3)[C@H](C)C2)c(C)c1` (stereo partly drawn) [Example 61, 6-{4-[6-(2-Isopropyl-pyridin-4-yl)-2-(2-methyl-pyrrolidin-1-yl)-pyrimidin-4-yl]-3-(R)-methyl-piperazin-1-yl}-5-methyl-nicotinic acid ethyl ester], the pIC50 is at least 6.00.
Next, `CCOC(=O)c1cnc(N2CCN(c3cc(-c4ccc(F)cc4)nc(N(C)C)n3)[C@H](C)C2)c(C)c1` [Example 62, 6-{4-[2-Dimethylamino-6-(4-fluoro-phenyl)-pyrimidin-4-yl]-3-(R)-methyl-piperazin-1-yl}-5-methyl-nicotinic acid ethyl ester]: at least 6.00; `Cc1cc(CO)cnc1N1CCN(c2cc(-c3ccccc3)nc(N3CCCC3C)n2)[C@H](C)C1` (stereo partly drawn) [Example 63, (5-Methyl-6-{3-(R)-methyl-4-[2-(2-methyl-pyrrolidin-1-yl)-6-phenyl-pyrimidin-4-yl]-piperazin-1-yl}-pyridin-3-yl)-methanol]: at least 6.00.
Turning to `Cc1cccc(-c2cc(N3CCN(c4ncc(CO)cc4C)C[C@H]3C)nc(N3CCCC3C)n2)c1` (stereo partly drawn) [Example 64, (5-Methyl-6-{3-(R)-methyl-4-[2-(2-methyl-pyrrolidin-1-yl)-6-m-tolyl-pyrimidin-4-yl]-piperazin-1-yl}-pyridin-3-yl)-methanol], the pIC50 is at least 6.00.
In the case of `Cc1cc(CO)cnc1N1CCN(c2cc(-c3ccncc3)nc(N3CCCC3C)n2)[C@H](C)C1` (stereo partly drawn) [Example 65, (5-Methyl-6-{3-(R)-methyl-4-[2-(2-methyl-pyrrolidin-1-yl)-6-pyridin-4-yl-pyrimidin-4-yl]-piperazin-1-yl}-pyridin-3-yl)-methanol], the pIC50 was at least 6.00.
For `Cc1cc(CO)cnc1N1CCN(c2cc(-c3ccnc(C(C)C)c3)nc(N3CCCC3C)n2)[C@H](C)C1` (stereo partly drawn) [Example 66, (6-{4-[6-(2-Isopropyl-pyridin-4-yl)-2-(2-methyl-pyrrolidin-1-yl)-pyrimidin-4-yl]-3-(R)-methyl-piperazin-1-yl}-5-methyl-pyridin-3-yl)-methanol] the value was at least 6.00; for `Cc1cc(CO)cnc1N1CCN(c2cc(-c3ccc(F)cc3)nc(N(C)C)n2)[C@H](C)C1` [Example 67, (6-{4-[2-Dimethylamino-6-(4-fluoro-phenyl)-pyrimidin-4-yl]-3-(R)-methyl-piperazin-1-yl}-5-methyl-pyridin-3-yl)-methanol], at least 6.00.
For the molecule `Cc1cc(C(=O)O)cnc1N1CCN(c2cc(-c3ccccc3)nc(N3CCCC3C)n2)[C@H](C)C1` (stereo partly drawn) [Example 68, 5-Methyl-6-{3-(R)-methyl-4-[2-(2-methyl-pyrrolidin-1-yl)-6-phenyl-pyrimidin-4-yl]-piperazin-1-yl}-nicotinic acid], the pIC50 is at least 6.00.
As for `Cc1cccc(-c2cc(N3CCN(c4ncc(C(=O)O)cc4C)C[C@H]3C)nc(N3CCCC3C)n2)c1` (stereo partly drawn) [Example 69, 5-Methyl-6-{3-(R)-methyl-4-[2-(2-methyl-pyrrolidin-1-yl)-6-m-tolyl-pyrimidin-4-yl]-piperazin-1-yl}-nicotinic acid], the pIC50 is at least 6.00.
For `Cc1cc(C(=O)O)cnc1N1CCN(c2cc(-c3ccncc3)nc(N3CCCC3C)n2)[C@H](C)C1` (stereo partly drawn) [Example 70, 5-Methyl-6-{3-(R)-methyl-4-[2-(2-methyl-pyrrolidin-1-yl)-6-pyridin-4-yl-pyrimidin-4-yl]-piperazin-1-yl}-nicotinic acid], the pIC50 was at least 6.00.
For `Cc1cc(CO)cnc1N1CCN(c2cc(-c3ccccc3)nc(N3CCCC3C)n2)CC1` (centres unmarked) [Example 71, (5-Methyl-6-{4-[2-(2-methyl-pyrrolidin-1-yl)-6-phenyl-pyrimidin-4-yl]-piperazin-1-yl}-pyridin-3-yl)-methanol], the pIC50 is at least 6.00.
For `Cc1cccc(-c2cc(N3CCN(c4ncc(CO)cc4C)CC3)nc(N3CCCC3C)n2)c1` (centres unmarked) [Example 72, (5-Methyl-6-{4-[2-(2-methyl-pyrrolidin-1-yl)-6-m-tolyl-pyrimidin-4-yl]-piperazin-1-yl}-pyridin-3-yl)-methanol] the value was at least 6.00; for `Cc1cc(CO)cnc1N1CCN(c2cc(-c3ccncc3)nc(N3CCCC3C)n2)CC1` (centres unmarked) [Example 73, (5-Methyl-6-{4-[2-(2-methyl-pyrrolidin-1-yl)-6-pyridin-4-yl-pyrimidin-4-yl]-piperazin-1-yl}-pyridin-3-yl)-methanol], at least 6.00.
With `Cc1cc(CO)cnc1N1CCN(c2cc(-c3ccnc(C(C)C)c3)nc(N3CCCC3C)n2)CC1` (centres unmarked) [Example 74, (6-{4-[6-(2-Isopropyl-pyridin-4-yl)-2-(2-methyl-pyrrolidin-1-yl)-pyrimidin-4-yl]-piperazin-1-yl}-5-methyl-pyridin-3-yl)-methanol], the pIC50 was at least 6.00.
Next, `Cc1cc(C(=O)O)cnc1N1CCN(c2cc(-c3ccccc3)nc(N3CCCC3C)n2)CC1` (centres unmarked) [Example 75, 5-Methyl-6-{4-[2-(2-methyl-pyrrolidin-1-yl)-6-phenyl-pyrimidin-4-yl]-piperazin-1-yl}-nicotinic acid]: at least 6.00; `Cc1cccc(-c2cc(N3CCN(c4ncc(C(=O)O)cc4C)CC3)nc(N3CCCC3C)n2)c1` (centres unmarked) [Example 76, 5-Methyl-6-{4-[2-(2-methyl-pyrrolidin-1-yl)-6-m-tolyl-pyrimidin-4-yl]-piperazin-1-yl}-nicotinic acid]: at least 6.00.
For `Cc1cc(C(=O)O)cnc1N1CCN(c2cc(-c3ccncc3)nc(N3CCCC3C)n2)CC1` (centres unmarked) [Example 77, 5-Methyl-6-{4-[2-(2-methyl-pyrrolidin-1-yl)-6-pyridin-4-yl-pyrimidin-4-yl]-piperazin-1-yl}-nicotinic acid] the value was at least 6.00; for `Cc1cc(C(=O)O)cnc1N1CCN(c2cc(-c3ccnc(C(C)C)c3)nc(N3CCCC3C)n2)CC1` (centres unmarked) [Example 78, 6-{4-[6-(2-Isopropyl-pyridin-4-yl)-2-(2-methyl-pyrrolidin-1-yl)-pyrimidin-4-yl]-piperazin-1-yl}-5-methyl-nicotinic acid], at least 6.00.
As for `CCOC(=O)c1cnc(N2CCN(c3cc(-c4ccc(F)c(Cl)c4)ncn3)[C@H](C)C2)c(Cl)c1` [Example 79, 5-Chloro-6-{4-[6-(3-chloro-4-fluoro-phenyl)-pyrimidin-4-yl]-3-(R)-methyl-piperazin-1-yl}-nicotinic acid ethyl ester], the pIC50 was at least 6.00.

(Values after patent US8334382B2, “Substituted biaryl piperazinyl-pyridine analogues” (Neurogen Corporation, priority 2004, dated 2012).)
